Reference: patent US20250026725A1, “HYDRATE CRYSTAL OF 5-CHLORO-4-(3-CHLORO-4- METHYLPHENYL)-1H-IMIDAZOLE-2-CARBONITRILE” (ISHIHARA SANGYO KAISHA, LTD., priority 2021, published 2025)
≈ marks a conversion by molar mass, not a printed value. Where two headings read alike, the source gives them in different places.

Experiments:
[1] = tested on: Microsporum canis (IFM63627); experiment: Antifungal activity test, minimum fungicidal concentration (MFC100) on spores by treatment time; assay type: cell-based; details: read-out: Minimal fungicidal concentration (MFC100)
Experimental: Microsporum canis was cultured on a 1/10 Sabouraud medium at 32° C. for 168 hours to form spores. Then, 10 mL of physiological saline solution (OTSUKA NORMAL SALINE; containing the equivalent of 9 g of sodium chloride in 1000 mL) was directly added over the medium, and the surface was scraped with a disposable loop (Type 1 (1 μL) to collect a spore suspension containing mycelia. The spore suspension containing mycelia was filtered through a cell strainer ((40 μm). Spores were collected from a filtrate by centrifugation (3500 rpm, 5 minutes), and washed twice with physiological saline to prepare a spore suspension (1×10^7 cells/mL). 10 μL of the spore suspension was inoculated into 90 μL of physiological saline solution to which the compound under test dissolved in DMSO was added so as to have a predetermined concentration. Every time a predetermined time lapsed, 10 μL of a test solution containing spores was taken out. Spores were collected from the test solution thus taken out by centrifugation (3500 rpm, 5 minutes), and washed twice with physiological saline to prepare 10 μL of spore suspension. […]
A minimum fungicidal concentration (MFC100) for Microsporum canis (IMF63627) was determined in the same method as in Test Example 8 except that the hydrate crystal (Production Example 2) was used as the compound under test.

[2] = tested on: Staphylococcus pseudintermedius (JCM 17571); experiment: Antimicrobial activity test, minimum bactericidal concentration (MBC100); assay type: cell-based; details: JCM17571, S. pseudintermedius, 1 minute contact, then culture at 30° C. for 72 hours
Experimental: Staphylococcus pseudintermedius that had been cultured on a Luria Broth (LB) agar medium plate (peptone, yeast extract, sodium chloride, agar, from Invitrogen) for 24 hours was suspended in physiological saline to prepare so as to have an absorbance of 0.025 at 600 nm. The compound under test dissolved in DMSO was added thereto so as to have final concentrations of 200, 100, 50, and 25 ppm, and 1 minute later, 10 μL of suspension and 10 mL of physiological saline were added to a syringe and stirred. After that, the mixture was filtered by connecting to a 37 mm quality monitor (manufactured by Pall Corporation) and washed twice with 10 ml of physiological saline. As such, membrane filters were permeated with an LB medium, culturing was performed at 30° C. for 72 hours, the presence or absence of the development of colonies was examined to determine a minimum bactericidal concentration (MBC100). A minimum bactericidal concentration (MBC100) for Staphylococcus pseudintermedius (JCM 17571) was determined in the same method as in Test Example 6 except that the hydrate crystal (Production Example 2) was used as the compound under test.

Structure (SMILES): Cc1ccc(-c2nc(C#N)[nH]c2Cl)cc1Cl [Anhydrous crystal, 5-chloro-4-(3-chloro-4-methylphenyl)-1H-imidazole-2-carbonitrile]
- MFC ([1]; treatment time 24 hours): 50 µg/mL (≈ 198 µM)
- MFC ([1]; treatment time 96 hours): 10 µg/mL (≈ 39.7 µM)
- MBC [2]: 50 µg/mL (≈ 198 µM)
